Measurements published in patent US5961978A, “Therapeutically useful peptides and peptide fragments” (Norsk Hydro, a.s., priority 1991, dated 1999).
pIC50: −log10 of the molar value. Where no end group is shown, it is not given here.

Key:
[1] = system: T cell clone E; test: T cell proliferation assay, clone E; assay type: cell-based, human
Experimental: (§1) FIG. 2 and FIGS. 2a-2e show the specificity of the T cell clones I, B, E and F in T cell proliferation assays. Assays were set up in triplicate in 96 well plates, with the five peptides present in the original peptide mixture as stimulating antigens. The wells contained 50000 irradiated (8000 R) autologous EBV transformed B cells as antigen presenting cells (APC).
(§2) Cultures were incubated for 2 days at 37° C. in a 5% CO2 incubator, and pulsed overnight with 1 μCi of ^3 H-thymidine (Amersham, England) per well before harvesting onto glass fibre filters by an automated cell harvester (Scatron, Lierbyen, Norway). Thymidine incorporation into DNA was quantitated by liquid scintillation counting using an LKB 1205 Betaplate Liquid Scintillation counter. Data are given as medians of triplicate cultures. Controls included T cell clones cultured alone, or with APC in the absence of peptides. The panels are scaled according to the magnitude of the positive response.
The conditions of the assay were as described in FIG. 2. […]

[2] = biological target: DQw6; test: Inhibition of binding of iodinated indicator peptide P104 to affinity purified HLA DQw6; design: species or system human; conditions: tested 0,33-10 μM
[3] = system: T cell clone F; test: T cell proliferation assay, clone F; assay type: cell-based, human; conditions: for stimulation of clone F by truncated forms of peptide 45: 10 μmolar
Experimental: as §1, §2
The conditions of the assay were exactly as described in FIG. 6.
The peptide concentration was as given in the Figure, and the conditions of the assay were otherwise as described for FIG. 6.

[4] = system: HLA-DQ; test: Peptide inhibition study, clone E as indicator responder cell (binding of peptide 43 to HLA-DQ); assay type: cell-based, human; conditions: FIG. 7; 5 μmolar peptide 43, 250 μmolar inhibitory peptide
Text: Conditions are otherwise as described in FIG. 4.
Five μmolar concentration of stimulatory peptide (peptide 43) and 250 μmolar of the inhibitory peptides were used. Conditions were otherwise as described in FIG. 4. Note: Peptide 65 and 81 are non-stimulatory in a concentration of 10 μmolar (FIG. 6), but are stimulatory in a concentration of 250 μmolar.
In order to map peptide binding to HLA-DR and HLA-DQ, we tested the non-stimulatory p21 ras peptides for capacity to inhibit the binding of peptide 42 to HLA-DR, using stimulation of clone I as indicator system, and inhibition of peptide 43 binding to HLA-DQ using stimulation of clone E as an indicator system.

[5] = system: DR1; assay type: binding, human; conditions: indicator iodinated P34, tested 0,33-10 μM

“VVGAGVVGKSALAL [compound 65, N-terminally truncated form of peptide 43]” was tested, and the “stimulation of clone E by truncated forms of peptide 43” value (“stimulation of clone E” for short) ([1]; 10 μmolar) was “non-stimulatory”, the “stimulation of clone E” value ([1]; 250 μmolar) was “become stimulatory” and the “stimulation of clone E” value ([1]; 250 μmolar, listed as Peptide 65) was “stimulatory”.

Substance VVVGAAGVGKSA [p91] has a pIC50 [2] of 5.89.

For “VVGAAGVGKSALAL [compound 70, N-terminally truncated form of peptide 45]”, the “stimulation of clone F by truncated forms of peptide 45” value [3] was “stimulate”.

In the case of “VVVGAGVVGKSALAL [compound 64, N-terminally truncated form of peptide 43]”, the “stimulation of clone E” value ([1]; 10 μmolar) was “stimulate”.

With VVGAAGVGKSA [p90] the pIC50 [2] was 5.00.

VVGAAGVGKS [P88] was tested, and the “dose-response of clone F, potency compared to peptide 45” value ([3]; FIG. 16) was “far less potent” and the pIC50 [2] was 5.05.

In the case of “GAGVVGKSALAL [compound 67, N-terminally truncated form of peptide 43]”, the “inhibition of clone E response to peptide 43 by truncated peptides” value (shortened to “inhibition of clone E response”) [4] was “inhibit”.

Work on VVVGAAGVGKS [P89] yielded a pIC50 [2] of 5.00.

With “VGAGVVGKSALAL [compound 66, N-terminally truncated form of peptide 43]” the “inhibition of clone E response” value [4] was “inhibit”.

In the case of “P104: printed Y----------- (SEQ ID NO. 93); iodinated P104 was the indicator peptide for binding to DQw6 (YVVVGAAGVGKSA; also: iodinated) [reference compound]”, the pIC50 [5] was 6.11 and the pIC50 [2] was > 6.48.

For “VVVGAAGVGKSALAL [compound 69, N-terminally truncated form of peptide 45]”, the “stimulation of clone F by truncated forms of peptide 45” value [3] was “stimulate”.

“AGVVGKSALAL [compound 68, N-terminally truncated form of peptide 43]” was tested, and the “inhibition of clone E response” value [4] was “inhibit”.
